Legend:
IRK1 channel = target: T1, IRK1 channel (Mus musculus, UniProt P35561); assay: whole-cell patch clamp, HEK293T cells transfected with IRK1; assay type: cell-based; details: n=5; for inhibition of IRK1 channel, percentage inhibition: equimolar 50 mM alcohol series
T1 construct: expressed in transfected cells; host or cells: HEK293T
T1 sequence (P35561 1-428): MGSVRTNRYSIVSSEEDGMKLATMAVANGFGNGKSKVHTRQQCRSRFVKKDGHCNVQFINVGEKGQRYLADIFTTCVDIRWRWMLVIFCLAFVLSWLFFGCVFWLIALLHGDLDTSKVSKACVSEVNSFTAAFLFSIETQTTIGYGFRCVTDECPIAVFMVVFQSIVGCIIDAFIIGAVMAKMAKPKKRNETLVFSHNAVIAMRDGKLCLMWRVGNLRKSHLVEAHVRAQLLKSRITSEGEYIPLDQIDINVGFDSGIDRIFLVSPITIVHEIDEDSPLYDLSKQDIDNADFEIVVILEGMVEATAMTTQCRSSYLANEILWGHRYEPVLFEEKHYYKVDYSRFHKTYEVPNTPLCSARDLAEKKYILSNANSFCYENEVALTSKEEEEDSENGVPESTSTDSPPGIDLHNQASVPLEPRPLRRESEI
Procedure: Using whole-cell patch clamp, technique in HEK293T cells transfected with IRK1 or GIRK2 channels, it was determined that MPD does in fact modulate these channels. Addition of 100 mM MPD inhibits the inward currents of the IRK1 channel, without changing the reversal potential or altering inward rectification (FIG. 1e).
GIRK2c, GIRK4, IRK1, M2R and m-Phosducin were subcloned into PCDNA3.1 vector (Invitrogen). Point mutations were introduced by Quickchange site directed mutagenesis kit (Stratagene). The GIRK2 PIP mutant was generated by overlap-PCR method. Briefly, amino acid 216-NLRKSHL-222 (SEQ ID NO: 25) of IRK1 was swapped into 228-DLRNSHL-234 (SEQ ID NO: 26) of GIRK2, in the region designated βC-βD loop in the crystal structure. Mutations were confirmed by automated DNA sequencing methods.
HEK 293T cells were cultured in DMEM supplemented with 10% FBS, and 1× Glutamax (Invitrogen) in a humidified 37° incubator with 5% CO2. Cells were plated in a 12 well dish, and were transiently transfected using Lipofectamine 2000 (Invitrogen). After 12-24 hrs, cells were re-plated to 12-mm glass coverslips coated with poly-D-Lysine (20 microgram/ml).
HEK293 cells were transfected with 0.2 micrograms of channel cDNA. The cells were co-transfected with 0.04 micrograms of eYFP cDNA to identify transfected cells. 0.8 micrograms of Muscarinic Receptor 2 (M2R) was also co-transfected for experiments with Carbachol. For experiments with and without m-phosducin, 0.8 ug of m-phosducin cDNA was used versus a PCDNA3.1 vector control.
Whole-cell patch clamp recordings were performed 24-72 hrs after transfection. Borosilicate glass electrodes (Warner Instruments) of […] filled with intracellular solution (130 mM KCl, 20 mM NaCl, 5 mM EGTA, 2.56 mM K2ATP, 5.46 mM MgCl2, 0.30 mM Li2GTP, and 10 mM HEPES (pH 7.4)) was used. Membrane currents were recorded using Axopatch 200B (Axon Instruments) amplifier, adjusted electronically for cell capacitance and series resistance (80-100%), filtered at 1 kHz with an 8-pole Bessel filter and digitized at 5 kHz with a Digidata 1200 interface (Axon Instruments). The cells rapidly perfused with a 20 mM K^+ (20K) solution (20 mM KCl, 140 mM NaCl, 0.5 mM CaCl2, 2 mM MgCl2 and 10 mM HEPES (pH7.4)). Alcohols, 5 μM Carbachol, and 1 mM BaCl2 (diluted in 20K solution) were applied from outside the cell with the rapid perfusion system (Warner Instruments). Whole-cell currents were measured using a ramp protocol that holds at −40 mV, steps to −100 mV then ramps to +50 mV and repeats every 2 seconds. Current-voltage relationships also were obtained from the ramp protocol. This protocol was used to measure the inwardly rectifying currents at −100 mV and to ensure stability of recording by monitoring a reversal potential and inward rectification. Current density was measured by dividing inward current at −100 mV by membrane capacitance that was compensated during the recording. Basal currents were measured as the Ba^++ blocked inward currents at −100 mV. Alcohol and Carbachol modulated currents were measured by averaging two consecutive current readings upon reaching steady state, and subtracting the averaged basal current before and after the application of modulator. Pooled data are presented as Mean±SEM and evaluated for statistical significance by a 1-way ANOVA, followed by Bonferroni's multiple comparison post-hoc test.

GIRK4 = target: T2, GIRK4 (Rattus norvegicus, UniProt P48548); assay: whole-cell patch clamp, GIRK4 homo-tetramers; assay type: cell-based; details: n=7
T2 construct: expressed in transfected cells; host or cells: HEK293 / HEK293T
T2 sequence (P48548 1-419): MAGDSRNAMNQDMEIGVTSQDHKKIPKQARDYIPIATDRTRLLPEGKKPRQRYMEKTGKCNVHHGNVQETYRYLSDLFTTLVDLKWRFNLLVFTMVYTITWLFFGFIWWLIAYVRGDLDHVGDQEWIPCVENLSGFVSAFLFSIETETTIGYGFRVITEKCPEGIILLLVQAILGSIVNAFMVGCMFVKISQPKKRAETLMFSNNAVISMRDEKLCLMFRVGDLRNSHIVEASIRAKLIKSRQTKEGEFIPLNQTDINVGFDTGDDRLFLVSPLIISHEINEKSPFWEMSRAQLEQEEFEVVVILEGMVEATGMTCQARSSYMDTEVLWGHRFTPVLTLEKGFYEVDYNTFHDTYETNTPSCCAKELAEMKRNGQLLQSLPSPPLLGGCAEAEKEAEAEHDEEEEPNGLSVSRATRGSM
Procedure: Point mutations were introduced by Quickchange site directed mutagenesis kit (Stratagene). The GIRK2 PIP mutant was generated by overlap-PCR method. […] Mutations were confirmed by automated DNA sequencing methods. […] Cells were plated in a 12 well dish, and were transiently transfected using Lipofectamine 2000 (Invitrogen). After 12-24 hrs, cells were re-plated to 12-mm glass coverslips coated with poly-D-[…] microgram/ml). […] The cells were co-transfected with 0.04 micrograms of eYFP cDNA to identify transfected cells. 0.8 micrograms of Muscarinic Receptor 2 (M2R) was also co-transfected for experiments with Carbachol. […] Whole-cell patch clamp recordings were performed 24-72 hrs after transfection. […] Alcohols, 5 μM Carbachol, and 1 mM BaCl2 (diluted in 20K solution) were applied from outside the cell with the rapid perfusion system (Warner Instruments). […] Current-voltage relationships also were obtained from the ramp protocol. This protocol was used to measure the inwardly rectifying currents at -100 mV and to ensure stability of recording by monitoring a reversal potential and inward rectification. […] Alcohol and Carbachol modulated currents were measured by averaging two consecutive current readings upon reaching steady state, and subtracting the averaged basal current before and after the application of modulator.

inhibition of IRK1 channel, percentage inhibition (IRK1 channel) | modulation of GIRK4 currents, mean percentage change from basal (negative = inhibition) (GIRK4) | inhibition at 100000 µM (IRK1 channel; HEK-293T, 100 mM MPD, -100 mV, read-out: percent change of basal current, IRK) | Molecule
−5±1% | 43±6% |  | CCO [EtOH, ethanol]
−12±2% | 43±7% |  | 1-propanol [1-PrOH]
−20±3% | −70±3% |  | 1-butanol [1-BuOH]
−25±3% | 55±8% | 32.5 ± 3.9% | CC(O)CC(C)(C)O (racemic) [MPD, 2-methyl-2,4-pentanediol]

— patent US8097422B2, “Kir channel modulators” (Salk Institute for Biological Studies, priority 2007, dated 2012)
